Where two headings read alike, the source gives them in different places. A value given as a limit tells only on which side of the number the result lay.

This is an account of results in patent publication US9403797B2, “5-(pyridin-2-yl-amino)-pyrazine-2-carbonitrile compounds and their therapeutic use” (Cancer Research Technology Limited, priority 2011, dated 2016).

In data set [1] the test system is HT29 human colon carcinoma xenograft. As to the kind of experiment: In Vivo Study 2: combination with gemcitabine in HT29 human colon carcinoma xenograft. On the set-up: species or system mouse. The note with it: for Tumour growth inhibition relative to controls / T/C vs. vehicle controls: day 24; for T/C vs. vehicle controls: tumour volumes; for Mean tumour volume (cm^3, mean ± SEM): day 24 after start of therapy, PAPC-A-01 75 mg/kg p.o., gemcitabine 100 mg/kg i.v. How it is done:
In Vivo Study 2: PAPC-A-01 in Combination with Gemcitabine in HT29 Human Colon Carcinoma Xenograft
Animals weighed 20.3±2.0 g at the start of the study. Handing and all experimental procedures were performed under sterile conditions in laminar flow hoods in accordance with UK Home Office, national and local ethical guidelines.
HT29 colon carcinoma cells from the American Type Culture Collection (ATCC, LGC Promochem, Middesex, UK) were harvested from tissue culture flasks and injected subcutaneously in the right flanks of mice (3 million cells per site). Once tumours were established (mean diameter 0.55±0.05 cm) mice were randomised to treatment groups (n=6) to receive (a) test compound (PAPC-A-01) (75 mg/kg), (b) gemcitabine (100 mg/kg), (c) a combination (PAPC-A-01) (75 mg/kg) and gemcitabine (100 mg/kg), or (d) relevant vehicles.
Clinical grade gemcitabine hydrochloride (GEMZAR, Eli Lilly, Newmarket, UK) was reconstituted in sterile 0.9% sodium chloride and aliquots frozen at −20° C. Gemcitabine was administered intravenously once weekly via a lateral tail vein on days 0 (day 5 after tumour cell implantation), 7 and 14. Test compound (PAPC-A-01) was dissolved in 10% DMSO and diluted out in 5% Tween 20, 85% saline. Test compound (PAPC-A-01) was administered by oral gavage on days 1, 2, 8, 9, 15 and 16. The control animals received both vehicles by the appropriate route on the designated days. The compounds were administered in a volume of 100 μL per 10 g body weight.
Animals were observed daily and body weights and tumours measured three times weekly. Two perpendicular tumour diameters were used to calculate volumes using the formula: V=4/3π[(d1+d2)/4]^3.
T/C values (volumes of treated tumours vs. controls) were calculated with respect to vehicle control tumours or those treated with gemcitabine alone, expressed as a percentage.

The next data set concerns the target CHK1 (Homo sapiens (Human), UniProt O14757). In words: Inhibitor potency vs. CHK1 (Assay 1A DELFIA or Assay 1B Caliper format). In kind it is biochemical. How it is done: Assay 1A: Determination of Inhibitor Potency vs. CHK1 in DELFIA Assay Format
CHK1 kinase function was measured in a DELFIA® assay in order to monitor phosphorylation of a CDC25C peptide using a specific phospho antibody. […] The reaction mixture was incubated for 30 minutes at room temperature and then stopped by the addition of buffer (125 μL) containing 40 mM EDTA, 0.05% Tween 20, 0.1% BSA in TBS (10× concentrate, Sigma). An aliquot (100 μL) of the stopped reaction mixture was transferred to a black neutravidin-coated plate (Perbio) and incubated for 1 hour on a shaker (Titertek, Flow Laboratories) at room temperature. […] The plates were washed a further four times with wash buffer before the addition of enhancement solution (100 μL/well, PerkinElmer Life Sciences).
Assay 1B: Determination of Inhibitor Potency Vs. CHK1 in Caliper Assay Format
CHK1 kinase activity was measured in a microfluidic assay that monitors the separation of a phosphorylated product from its substrate. […] For each test compound a 50 μM stock concentration in 100% DMSO was used. […] The plate was sealed and centrifuged (1 minutes, 1000 rpm) before incubation for one hour at room temperature. The reaction was stopped by the addition of separation buffer (90 μL). […] IC50 values were calculated in GraphPad Prism5 using a non linear regression fit of the log (inhibitor) vs. response with variable slope equation.

A further data set addresses CHK2 (Homo sapiens (Human), UniProt O96017). As to the kind of experiment: Inhibitor selectivity for inhibition of CHK1 vs. CHK2 (Assay 2, CHK2 DELFIA assay). It is filed as biochemical. The note with it: CHK2 IC50/CHK1 IC50. The method, then: The plates were washed a further four times with wash buffer before the addition of enhancement solution (100 μL/well, PerkinElmer Life Sciences).

The test system of another data set is TH-MYCN neuroblastoma. In words: In Vivo Study 1: transgenic MYCN-driven neuroblastoma model. More on the design: species or system mouse. How it is done:
In Vivo Study 1: PAPC-A-01 in Transgenic MYCN-Driven Neuroblastoma Model
Spontaneous neuroblastomas arising in hemizygous mice transgenic for TH-MYCN (human MYCN under the control of the rat tyrosine hydroxylase promoter) were detected by abdominal palpation. Sequential animals with well-established tumours (30-70 days of age) were randomised to receive either test compound (PAPC-A-01) or vehicle until 8-9 mice per group were accrued. The test compound (PAPC-A-01) was administered as a single agent at 100 mg/kg p.o. daily for 7 consecutive days by oral gavage (100 μL/10 g body weight) and controls received an equivalent volume of vehicle (10% DMSO, 5% Tween 20, 85% saline). Neuroblastoma size was assessed by MRI and by the mass of tumours dissected from the abdominal cavity at the end of therapy.
^1H MRI was performed on a 7T Bruker horizontal bore microimaging system (Bruker Instruments, Ettlingen, Germany) using a 3 cm birdcage coil. Anaesthesia was induced a combination of fentanyl citrate (0.315 mg/mL) plus fluanisone (10 mg/mL) (Hypnorm, Janssen Pharmaceutical, Oxford, UK) and midazolam (5 mg/mL) (Roche, Welwyn Garden City, UK) and water (1:1:2). Animal body temperature was maintained by a warm air blower through the magnet bore.
Anatomical T2-weighted coronal and transverse images were acquired from twenty contiguous 1 mm-thick coronal slices through the mouse abdomen, using a rapid acquisition with refocused echoes (RARE) sequence with 4 averages of 128 phase encoding steps over a 3×3 cm field of view, two echoes of 36 and 132 ms, a TR of 4.5 s and a RARE factor of 8. Following MRI, the mice were left to recover on a heat mat for 24 hours. Tumour volumes were measured using segmentation from regions of interest drawn on every slice from the coronal T2 weighted images containing tumour using in-house software (ImageView, working under IDL, ITT, Boulder, Colo., USA).

The next data set can be described thus: in vivo. The following applies: female, BALB/c, mouse, Oral bioavail. (plasma concentration, 1 hour following 10 mg/kg p.o.).
In the next data set the test system is HT29 cells. In words: Mitosis Inhibition Assay (MIA), checkpoint abrogation. The note with it: Homo sapiens, HT-29, read-out: MIA IC50.
Data set [2] in a line: Comparative oral bioavailability by limited sampling in vivo pharmacokinetics. The following applies: female, BALB/c, mouse, plasma, 10 mg/kg, Oral bioavail. (plasma concentration, 1 hour following 10 mg/kg p.o.), female BALB/c mice, expressed relative to 10 mg/kg p.o.
The mark [3] stands for this setting: Assay 1A (DELFIA) or Assay 1B (Caliper), read-out: CHK1 IC50.

Chain of CHK1 (O14757 whole entry): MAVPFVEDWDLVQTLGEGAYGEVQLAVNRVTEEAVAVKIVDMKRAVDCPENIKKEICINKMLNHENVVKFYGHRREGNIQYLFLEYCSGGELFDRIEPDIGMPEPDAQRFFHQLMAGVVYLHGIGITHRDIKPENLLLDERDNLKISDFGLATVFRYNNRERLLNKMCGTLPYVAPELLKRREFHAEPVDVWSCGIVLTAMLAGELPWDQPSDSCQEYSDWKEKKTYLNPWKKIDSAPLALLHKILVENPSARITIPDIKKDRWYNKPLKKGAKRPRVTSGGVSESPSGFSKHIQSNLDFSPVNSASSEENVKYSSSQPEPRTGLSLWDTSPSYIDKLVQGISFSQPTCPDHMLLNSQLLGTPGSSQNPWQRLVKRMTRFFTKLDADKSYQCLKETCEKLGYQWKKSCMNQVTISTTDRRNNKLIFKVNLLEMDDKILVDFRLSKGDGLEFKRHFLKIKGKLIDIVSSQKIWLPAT
Chain of CHK2 (O96017 whole entry): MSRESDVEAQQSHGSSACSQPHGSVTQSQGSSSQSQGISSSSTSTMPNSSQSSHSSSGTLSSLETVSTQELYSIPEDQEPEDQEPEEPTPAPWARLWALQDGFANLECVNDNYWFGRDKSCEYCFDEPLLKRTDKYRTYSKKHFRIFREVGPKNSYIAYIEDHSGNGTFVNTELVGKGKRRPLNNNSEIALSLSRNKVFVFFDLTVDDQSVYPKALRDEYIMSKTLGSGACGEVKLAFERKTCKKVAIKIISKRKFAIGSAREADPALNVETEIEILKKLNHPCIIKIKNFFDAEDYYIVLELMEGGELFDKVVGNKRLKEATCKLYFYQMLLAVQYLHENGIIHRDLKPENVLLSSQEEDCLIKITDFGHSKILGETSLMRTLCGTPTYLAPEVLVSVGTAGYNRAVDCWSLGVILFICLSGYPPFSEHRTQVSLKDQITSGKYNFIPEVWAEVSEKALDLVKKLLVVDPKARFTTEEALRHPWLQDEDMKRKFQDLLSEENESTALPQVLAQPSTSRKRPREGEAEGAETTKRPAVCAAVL

On to `Nc1ccn([C@@H]2O[C@H](CO)[C@@H](O)C2(F)F)c(=O)n1` [Gemcitabine, reference compound], for which, in data set [1], the “Tumour growth inhibition relative to controls” value is on record as “approximately 20%”; the “T/C vs. vehicle controls” value was 80.8%; the “Mean tumour volume (cm^3, mean ± SEM)” value was found to be 0.888 ± 0.188 cm^3.

`COc1cc(Nc2cnc(C#N)c(O[C@H](C)CN(C)C)n2)ncc1-c1cnn(C)c1` [PAPC-A-01, (R)-3-((1-(Dimethylamino)propan-2-yl)oxy)-5-((4-methoxy-5-(1-methyl-1H-pyrazol-4-yl)pyridin-2-yl)amino)pyrazine-2-carbonitrile]: the 50% inhibitory concentration (IC50) (in general, the concentration needed to halve the response being measured) against CHK1 was < 20 nM. The IC50 at CHK1 (setting [3]) amounted to 6 nM. In addition, the “CHK1 vs. CHK2 selectivity” value on CHK2 is reported as 540-fold. Further, the “T/C (tumour weight)” value in the data set on TH-MYCN neuroblastoma (100 mg/kg p.o. daily for 7 days) is given as 13.4%. Also, the “MR imaging in individual mice, pre-treatment and on day 7” value in the data set with TH-MYCN neuroblastoma (7 day treatment period, 100 mg/kg p.o. daily) is reported as “tumour regression”. Moreover, the “Mean weight of tumours at the end of the study” value in the data set with TH-MYCN neuroblastoma (mean±SD, 100 mg/kg p.o. daily for 7 days, control 2.1±0.7 g) was determined as 0.3 ± 0.2 g. Also, the “Tumour volume (MRI)” value in the data set with TH-MYCN neuroblastoma (one mouse, following 7 days treatment, 100 mg/kg p.o. daily, pre-treatment volume 1960 mm^3) was 417 mm^3. Besides, in data set [1], the “Tumour growth inhibition relative to controls” value is recorded as “no growth inhibition”; the “T/C vs. vehicle controls” value is reported as 101.4%; the “Mean tumour volume (cm^3, mean ± SEM)” value is given as 1.114 ± 0.257 cm^3.

For the molecule `C[C@H](CN(C)C)Oc1nc(Nc2cc(N(C)C)c(-c3cnn(C)c3)cn2)cnc1C#N` [PAPC-A-03, (R)-5-((4-(Dimethylamino)-5-(1-methyl-1H-pyrazol-4-yl)pyridin-2-yl)amino)-3-((1-(dimethylamino)propan-2-yl)oxy)pyrazine-2-carbonitrile], on CHK1 (setting [3]), the IC50 is < 20 nM.

In the case of `CNc1cc(Nc2cnc(C#N)c(O[C@H](C)CN(C)C)n2)ncc1C#CC(C)(C)O` [PAPC-A-08, (R)-3-((1-(Dimethylamino)propan-2-yl)oxy)-5-((5-(3-hydroxy-3-methylbut-1-yn-1-yl)-4-(methylamino)pyridin-2-yl)amino)pyrazine-2-carbonitrile], on CHK1, the IC50 is < 20 nM.

For the molecule `CNc1cc(Nc2cnc(C#N)c(O[C@H](C)CN(C)C)n2)ncc1C1CC1` [PAPC-A-09, (R)-5-((5-Cyclopropyl-4-(methylamino)pyridin-2-yl)amino)-3-((1-(dimethylamino)propan-2-yl)oxy)pyrazine-2-carbonitrile], the concentration at 1 h in “in vivo” is ≥ 10 nM.

For `CNc1cc(Nc2cnc(C#N)c(O[C@H](C)CN(C)C)n2)ncc1C(=O)OC` [PAPC-A-10, (R)-Methyl 6-((5-cyano-6-((1-(dimethylamino)propan-2-yl)oxy)pyrazin-2-yl)amino)-4-(methylamino)nicotinate], on CHK1, the IC50 is < 20 nM.

For the molecule `COc1cc(Nc2cnc(C#N)c(O[C@@H]3CCNC3)n2)ncc1-c1cnn(C)c1` [PAPC-B-01, (R)-5-((4-Methoxy-5-(1-methyl-1H-pyrazol-4yl)pyridin-2-yl)amino)-3-(pyrrolidin-3-yloxy)pyrazine-2-carbonitrile], the IC50 against CHK1 is < 20 nM.

Consider `COc1cc(Nc2cnc(C#N)c(O[C@@H]3CCN(C)C3)n2)ncc1-c1cnn(C)c1` [PAPC-B-02, (R)-5-((4-Methoxy-5-(1-methyl-1H-pyrazol-4-yl)pyridin-2-yl)amino)-3-((1-methylpyrrolidin-3-yl)oxy)pyrazine-2-carbonitrile], for which the IC50 against CHK1 was < 20 nM.

For `CNc1cc(Nc2cnc(C#N)c(O[C@@H]3CCNC3)n2)ncc1-c1cnn(C)c1` [PAPC-B-03, (R)-5-((5-(1-Methyl-1H-pyrazol-4-yl)-4-(methylamino)pyridin-2-yl)amino)-3-(pyrrolidin-3-yloxy)pyrazine-2-carbonitrile], the IC50 with HT29 cells was < 500 nM.

For `CNc1cc(Nc2cnc(C#N)c(O[C@H]3CCNC3)n2)ncc1-c1cnn(C)c1` [PAPC-B-04, (S)-5-((5-(1-Methyl-1H-pyrazol-4-yl)-4-(methylamino)pyridin-2-yl)amino)-3-(pyrrolidin-3-yloxy)pyrazine-2-carbonitrile], the half-maximal inhibitory concentration (IC50) in the data set with HT29 cells was < 500 nM.

Regarding `CNc1cc(Nc2cnc(C#N)c(O[C@@H]3CCN(C)C3)n2)ncc1-c1cnn(C)c1` [PAPC-B-05, (R)-5-((5-(1-Methyl-1H-pyrazol-4-yl)-4-(methylamino)pyridin-2-yl)amino)-3-((1-methylpyrrolidin-3-yl)oxy)pyrazine-2-carbonitrile], at CHK1, the IC50 was < 20 nM.

For the molecule `CNc1cc(Nc2cnc(C#N)c(O[C@H]3CCN(C)C3)n2)ncc1-c1cnn(C)c1` [PAPC-B-06, (S)-5-((5-(1-Methyl-1H-pyrazol-4-yl)-4-(methylamino)pyridin-2-yl)amino)-3-((1-methylpyrrolidin-3-yl)oxy)pyrazine-2-carbonitrile], at CHK1, the IC50 is < 20 nM. The concentration at 1 h in the data set “in vivo” was ≥ 10 nM.

On to `CNc1cc(Nc2cnc(C#N)c(O[C@@H]3CCNC3)n2)ncc1C#CC(C)(C)O` [PAPC-B-08, (R)-5-((5-(3-Hydroxy-3-methylbut-1-yn-1-yl)-4-(methylamino)pyridin-2-yl)amino)-3-(pyrrolidin-3-yloxy)pyrazine-2-carbonitrile], for which the IC50 on CHK1 (setting [3]) was < 20 nM. Further, in data set [2], the concentration at 1 h was ≥ 10 nM.

For `COC(=O)c1cnc(Nc2cnc(C#N)c(O[C@@H]3CCNC3)n2)cc1N(C)C` [PAPC-B-11, (R)-Methyl 6-((5-cyano-6-(pyrrolidin-3-yloxy)pyrazin-2-yl)amino)-4-(dimethylamino)nicotinate], the IC50 against CHK1 was < 20 nM.
